Values after ≈ are worked out from the molar mass of the structure shown. Peptide text beside a SMILES is read from it.
What was measured:
[1] = system: 11 clinically relevant bacterial pathogens; test: MIC over the panel of pathogens; type: cell-based; conditions: Table S17; lowest MIC over the strains tested
A. baumannii ATCC19606 = test: Outer membrane permeabilization, NPN uptake; type: cell-based, Acinetobacter baumannii; conditions: peptide at its MIC; polymyxin B as positive control; three replicates

Q: `CC[C@H](C)[C@H](N)C(=O)N[C@@H](CO)C(=O)N[C@@H](CC(C)C)C(=O)N[C@@H](Cc1ccccc1)C(=O)N[C@H](C(=O)N[C@@H](CCCNC(=N)N)C(=O)N1CCC[C@H]1C(=O)N[C@@H](CC(C)C)C(=O)N[C@@H](C)C(=O)N[C@@H](CC(C)C)C(=O)NCC(=O)N[C@H](C(=O)N[C@@H](CCCNC(=N)N)C(=O)N[C@@H](CC(C)C)C(=O)O)C(C)C)[C@@H](C)CC` [Psephotellin-1] (H-ISLFIRPLALGVRL-OH) was tested. Which “MIC (lowest MIC value obtained in the antimicrobial activity assays)” value [1] did it give?
A: Its value is 16 mol/L (≈ 25100 mg/mL).

Q: And the “outer membrane permeabilization (NPN uptake)” value (A. baumannii ATCC19606)?
A: The value was “permeabilized the outer membrane”.

Q: Which “MIC (lowest MIC value obtained in the antimicrobial activity assays)” value [1] does the source give for `CC[C@H](C)[C@H](NC(=O)[C@H](CO)NC(=O)CNC(=O)[C@H](CC(C)C)NC(=O)[C@H](CC(C)C)NC(=O)[C@H](CC(C)C)NC(=O)[C@H](CCCNC(=N)N)NC(=O)[C@H](CCCCN)NC(=O)[C@@H](NC(=O)[C@H](CO)NC(=O)[C@H](CC(N)=O)NC(=O)[C@@H](NC(=O)[C@H](CC(C)C)NC(=O)[C@@H](N)CC(C)C)[C@@H](C)CC)[C@@H](C)CC)C(=O)N[C@@H](CC(C)C)C(=O)O` [Arctodutin-1] (H-LLINSIKRLLLGSIL-OH) here?
A: Its value is 2 mol/L (≈ 3330 mg/mL).

Q: And the “outer membrane permeabilization (NPN uptake)” value (A. baumannii ATCC19606)?
A: The value was “permeabilized the outer membrane”.

From paper doi:10.1101/2023.10.01.560353v1 (bioRxiv, 2023)
